{"source": "patent US20100175140A1", "about": "“Leucine-rich repeat kinase (LRRK2) drosophila model for parkinson's disease: wildtype1 (WT1) and G2019S mutant flies” (The Johns Hopkins University, priority 2008, published 2010)", "tested_on": "ddc-GAL4;G2019S-2 flies", "assay": "Climbing assay (negative geotaxis) of LRRK2-G2019S transgenic flies treated with L-DOPA", "assay_type": "in vivo, Drosophila melanogaster", "details": "5 weeks of age, 1 mM L-DOPA for 10 days, P<0.05 vs untreated (FIG. 2E)", "source_text": "We determined locomotor ability using a climbing assay (negative geotaxis assay) as described previously (23). Cohorts of 60 flies from each genotype were subjected to the assay weekly from 1 week to the time of death. The tested flies were age-matched, randomly selected, anesthetized, and placed in a vertical plastic column (length, 25 cm; diameter, 1.5 cm). After a 30-min recovery from CO2 exposure, flies were gently tapped to the bottom of the column. We counted and calculated the percentage of flies that could climb to or above the median line of the cylinder in 10 seconds. Each week, the assay was repeated three times."}
{"smiles": "N[C@@H](Cc1ccc(O)c(O)c1)C(=O)O", "note": "[L-DOPA]", "values": [{"measurement": "locomotor activity (climbing assay)", "result": "significantly improved"}]}
